Measurements taken from patent publication US20060130244A1, “Aqueous composition for dyeing keratin fibres comprising a dye and a specific block copolymer” (priority 2004, published 2006).

How the values were obtained:
[1] = Solubility of dye in aqueous medium (test tube, visual appearance); format: physicochemical
Experimental: The dye tested is Astrazon Orange R (or Basic Orange 22).
In a first trial, an aqueous solution comprising 0.04% of dye is added to a test tube.
In a second trial, a solution comprising 0.04% of dye, followed by 0.05% by weight of a poly(sodium acrylate-b-acrylamide) diblock copolymer (copolymer of Example 2), are added to a test tube. […] This thus attests to the ability of the block polymers in accordance with the invention to increase the solubility of dyes that are difficult to solubilize in an aqueous medium.

[2] = Stability of dye in alkaline oxidizing medium (test tube, visual coloration); format: physicochemical; settings: ammoniacal solution
Experimental: The dye tested is Basic Red 76.
In a first trial, an ammoniacal solution at 0.04% by weight of dye at pH=9 was added to a test tube and the solution was left to stand for 1 hour.
In a second trial, an ammoniacal solution at 0.04% by weight of dye at pH=9 was added to a test tube in the presence of a poly(sodium acrylate-b-acrylamide) diblock copolymer, in which each block has, respectively, a number-average molecular mass of 5000 and 30 000, and in the presence of aqueous hydrogen peroxide at 3%, and the mixture is left to stand for 1 hour.

appearance of aqueous solution, with block copolymer ([1]; 0.04% of dye plus 0.05% by weight poly(sodium acrylate-b-acrylamide) diblock copolymer) | appearance of aqueous solution, dye alone ([1]; aqueous solution, 0.04% of dye, no copolymer) | coloration of the solution after standing 1 hour, dye alone ([2]; 0.04% by weight of dye, pH 9, no copolymer) | coloration of the solution after standing 1 hour, with block copolymer ([2]; 0.04% dye, pH 9, with poly(sodium acrylate-b-acrylamide) diblock copolymer (5000/30 000) and 3% aqueous hydrogen peroxide) | Compound
clear solution | cloudy appearance | – | – | Astrazon Orange R
– | – | visible loss of coloration | remains stable | COc1ccccc1N=Nc1c(O)ccc2ccc([N+](C)(C)C)cc12.[Cl-] [Basic Red 76]
